Target: T1, glucosylceramide synthase (Homo sapiens, UniProt Q16739)
T1 construct: made in house; host or cells: Expi293F cells (transient expression, pcDNA3.3-TOPO vector); microsome fraction used as enzyme source
T1 sequence (Q16739 1-394): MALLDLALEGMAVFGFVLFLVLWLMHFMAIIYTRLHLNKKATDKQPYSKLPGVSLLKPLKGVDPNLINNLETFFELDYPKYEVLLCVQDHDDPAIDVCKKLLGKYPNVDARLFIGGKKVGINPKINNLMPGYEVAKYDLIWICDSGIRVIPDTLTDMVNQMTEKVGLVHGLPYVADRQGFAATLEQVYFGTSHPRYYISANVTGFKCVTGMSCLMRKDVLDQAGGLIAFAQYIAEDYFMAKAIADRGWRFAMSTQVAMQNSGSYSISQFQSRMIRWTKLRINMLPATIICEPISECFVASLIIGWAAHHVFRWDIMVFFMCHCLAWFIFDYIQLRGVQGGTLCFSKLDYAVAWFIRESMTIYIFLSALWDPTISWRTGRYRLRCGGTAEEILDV
Assay: Glucosylceramide synthase (GCS) enzyme assay, microsome fraction, C8 glucosylceramide quantified by Rapidfire MS/MS
Type: biochemical
Settings: test compound 10 μM; 1.7 μM UDP-glucose, 3 μM C8 ceramide; room temperature 60 min; read-out: GCS enzyme inhibitory rate at 10 μM (%) (% of control)
Method in brief: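 Test compound, 10 μM final, was run against human GCS from transfected Expi293F microsome fractions, using substrate solution of 6 μM C8 ceramide (in DOPC liposomes) plus 3.4 μM UDP-glucose, pH 7.5 Tris buffer, 60 min, room temperature. Product C8 glucosylceramide measured by Rapidfire MS/MS against an internal standard, % inhibition referenced to no-enzyme and DMSO wells.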

inhibition at 10 µM [%]	Compound
91	O=C1c2ccnc(-c3ccccc3N3CCOCC3)c2CN1c1ccc(F)cc1 [Example 30, 2-(4-fluorophenyl)-4-[2-(morpholin-4-yl)phenyl]-2,3-dihydro-1H-pyrrolo[3,4-c]pyridin-1-one]
93	CSc1ccccc1-c1nccc2c1CN(c1ccc(F)cc1)C2=O [Example 31, 2-(4-fluorophenyl)-4-[2-(methylsulfanyl)phenyl]-2,3-dihydro-1H-pyrrolo[3,4-c]pyridin-1-one]
94	O=C1c2ccnc(-c3ccccc3OCC(F)(F)F)c2CN1c1ccc(F)cc1 [Example 42, 2-(4-fluorophenyl)-4-[2-(2,2,2-trifluoroethoxy)phenyl]-2,3-dihydro-1H-pyrrolo[3,4-c]pyridin-1-one]
95	COc1ccccc1-c1nccc2c1CN(c1ccc(F)cn1)C2=O [Example 43, 2-(5-fluoropyridin-2-yl)-4-(2-methoxyphenyl)-2,3-dihydro-1H-pyrrolo[3,4-c]pyridin-1-one]
89	Cn1ccc(N2Cc3c(ccnc3-c3ccc(F)cc3OCC(F)(F)F)C2=O)n1 [Example 45, 4-[4-fluoro-2-(2,2,2-trifluoroethoxy)phenyl]-2-(1-methyl-1H-pyrazol-3-yl)-2,3-dihydro-1H-pyrrolo[3,4-c]pyridin-1-one]
99	COc1ccccc1-c1nccc2c1CN(c1ccc(OCC(F)(F)F)cc1)C2=O [Example 50, 4-(2-methoxyphenyl)-2-[4-(2,2,2-trifluoroethoxy)phenyl]-2,3-dihydro-1H-pyrrolo[3,4-c]pyridin-1-one]
99	O=C1c2ccnc(-c3ccccc3OCC(F)(F)F)c2CN1c1ccc(F)cn1 [Example 51, 2-(5-fluoropyridin-2-yl)-4-[2-(2,2,2-trifluoroethoxy)phenyl]-2,3-dihydro-1H-pyrrolo[3,4-c]pyridin-1-one]
67	O=C1c2ccnc(-c3ccc(F)cc3OC(F)F)c2CN1c1ccc(OC(F)F)cn1 [Example 53, 4-[2-(difluoromethoxy)-4-fluorophenyl]-2-[5-(difluoromethoxy)pyridin-2-yl]-2,3-dihydro-1H-pyrrolo[3,4-c]pyridin-1-one]
100	O=C1c2ccnc(-c3ccccc3OCC(F)(F)F)c2CN1c1ccc(OC(F)F)cn1 [Example 54, 2-[5-(difluoromethoxy)pyridin-2-yl]-4-[2-(2,2,2-trifluoroethoxy)phenyl]-2,3-dihydro-1H-pyrrolo[3,4-c]pyridin-1-one]
100	O=C1c2ccnc(-c3ccccc3OCC(F)(F)F)c2CN1c1ccc(OC(F)(F)F)cn1 [Example 56, 4-[2-(2,2,2-trifluoroethoxy)phenyl]-2-[5-(trifluoromethoxy)pyridin-2-yl]-2,3-dihydro-1H-pyrrolo[3,4-c]pyridin-1-one]
74	O=C1c2ccnc(-c3ccc(F)cc3OC(F)F)c2CN1c1ccc(OC(F)(F)F)cn1 [Example 57, 4-[2-(difluoromethoxy)-4-fluorophenyl]-2-[5-(trifluoromethoxy)pyridin-2-yl]-2,3-dihydro-1H-pyrrolo[3,4-c]pyridin-1-one]
88	O=C1c2ccnc(-c3ccc(F)cc3OCC(F)(F)F)c2CN1c1ccc(F)cn1 [Example 59, 2-(5-fluoropyridin-2-yl)-4-[4-fluoro-2-(2,2,2-trifluoroethoxy)phenyl]-2,3-dihydro-1H-pyrrolo[3,4-c]pyridin-1-one]
99	O=C1c2ccnc(-c3ccccc3OCC(F)(F)F)c2CN1c1ccc(C(F)(F)F)cn1 [Example 60, 4-[2-(2,2,2-trifluoroethoxy)phenyl]-2-[5-(trifluoromethyl)pyridin-2-yl]-2,3-dihydro-1H-pyrrolo[3,4-c]pyridin-1-one]
85	O=C1c2ccnc(-c3ccc(F)cc3OCC(F)(F)F)c2CN1c1ccc(C(F)(F)F)cn1 [Example 61, 4-[4-fluoro-2-(2,2,2-trifluoroethoxy)phenyl]-2-[5-(trifluoromethyl)pyridin-2-yl]-2,3-dihydro-1H-pyrrolo[3,4-c]pyridin-1-one]
95	O=C1c2ccnc(-c3ccccc3OC(F)F)c2CN1c1ccc(OC(F)(F)F)cn1 [Example 62, 4-[2-(difluoromethoxy)phenyl]-2-[5-(trifluoromethoxy)pyridin-2-yl]-2,3-dihydro-1H-pyrrolo[3,4-c]pyridin-1-one]
96	O=C1c2ccnc(-c3ccccc3OC(F)F)c2CN1c1ccc(F)cn1 [Example 63, 4-[2-(difluoromethoxy)phenyl]-2-(5-fluoropyridin-2-yl)-2,3-dihydro-1H-pyrrolo[3,4-c]pyridin-1-one]
95	O=C1c2ccnc(-c3ccccc3OC(F)F)c2CN1c1ccc(C(F)(F)F)cn1 [Example 67, 4-[2-(difluoromethoxy)phenyl]-2-[5-(trifluoromethyl)pyridin-2-yl]-2,3-dihydro-1H-pyrrolo[3,4-c]pyridin-1-one]
87	N#Cc1ccc(N2Cc3c(ccnc3-c3ccccc3OCC(F)(F)F)C2=O)cc1 [Example 68, 4-{1-oxo-4-[2-(2,2,2-trifluoroethoxy)phenyl]-1,3-dihydro-2H-pyrrolo[3,4-c]pyridin-2-yl}benzonitrile]
100	N#Cc1ccc(N2Cc3c(ccnc3-c3ccccc3OCC(F)(F)F)C2=O)nc1 [Example 72, 6-{1-oxo-4-[2-(2,2,2-trifluoroethoxy)phenyl]-1,3-dihydro-2H-pyrrolo[3,4-c]pyridin-2-yl}pyridine-3-carbonitrile]

The remaining lines, values behind:

Compound	inhibition at 10 µM [%]
COc1ccccc1-c1nccc2c1CN(c1ccc(C(F)(F)F)cn1)C2=O [Example 32, 4-(2-methoxyphenyl)-2-[5-(trifluoromethyl)pyridin-2-yl]-2,3-dihydro-1H-pyrrolo[3,4-c]pyridin-1-one]	93
COc1cnc(C)cc1-c1nccc2c1CN(c1ccc(F)cc1)C2=O [Example 33, 2-(4-fluorophenyl)-4-(5-methoxy-2-methylpyridin-4-yl)-2,3-dihydro-1H-pyrrolo[3,4-c]pyridin-1-one]	68
COC(=O)c1ccc(-c2nccc3c2CN(c2ccc(F)cc2)C3=O)c(OC(F)F)c1 [Example 34, methyl 3-(difluoromethoxy)-4-[2-(4-fluorophenyl)-1-oxo-2,3-dihydro-1H-pyrrolo[3,4-c]pyridin-4-yl]benzoate]	83
COc1ccccc1-c1nccc2c1CN(c1ccc(OC(F)F)cn1)C2=O [Example 39, 2-[5-(difluoromethoxy)pyridin-2-yl]-4-(2-methoxyphenyl)-2,3-dihydro-1H-pyrrolo[3,4-c]pyridin-1-one]	93
NC(=O)c1ccc(-c2nccc3c2CN(c2ccc(F)cc2)C3=O)c(OC(F)F)c1 [Example 40, 3-(difluoromethoxy)-4-[2-(4-fluorophenyl)-1-oxo-2,3-dihydro-1H-pyrrolo[3,4-c]pyridin-4-yl]benzamide]	54
CCOC(=O)c1ccc(-c2nccc3c2CN(c2ccc(F)cc2)C3=O)c(OC)c1 [Example 48, ethyl 4-[2-(4-fluorophenyl)-1-oxo-2,3-dihydro-1H-pyrrolo[3,4-c]pyridin-4-yl]-3-methoxybenzoate]	70
O=C1c2ccnc(-c3ccc(F)cc3OC(F)F)c2CN1c1ccc(F)cn1 [Example 52, 4-[2-(difluoromethoxy)-4-fluorophenyl]-2-(5-fluoropyridin-2-yl)-2,3-dihydro-1H-pyrrolo[3,4-c]pyridin-1-one]	67
O=C1c2ccnc(-c3ccc(F)cc3OCC(F)(F)F)c2CN1c1ccc(OC(F)F)cn1 [Example 55, 2-[5-(difluoromethoxy)pyridin-2-yl]-4-[4-fluoro-2-(2,2,2-trifluoroethoxy)phenyl]-2,3-dihydro-1H-pyrrolo[3,4-c]pyridin-1-one]	98
O=C1c2ccnc(-c3ccc(F)cc3OCC(F)(F)F)c2CN1c1ccc(OC(F)(F)F)cn1 [Example 58, 4-[4-fluoro-2-(2,2,2-trifluoroethoxy)phenyl]-2-[5-(trifluoromethoxy)pyridin-2-yl]-2,3-dihydro-1H-pyrrolo[3,4-c]pyridin-1-one]	96
O=C1c2ccnc(-c3ccccc3OC(F)F)c2CN1c1ccc(OC(F)F)cn1 [Example 64, 4-[2-(difluoromethoxy)phenyl]-2-[5-(difluoromethoxy)pyridin-2-yl]-2,3-dihydro-1H-pyrrolo[3,4-c]pyridin-1-one]	96
O=C1c2ccnc(-c3ccc(F)cc3OCC(F)(F)F)c2CN1c1ccc(OC(F)F)nc1 [Example 65, 2-[6-(difluoromethoxy)pyridin-3-yl]-4-[4-fluoro-2-(2,2,2-trifluoroethoxy)phenyl]-2,3-dihydro-1H-pyrrolo[3,4-c]pyridin-1-one]	95
N#Cc1ccc(N2Cc3c(ccnc3-c3ccc(F)cc3OC(F)F)C2=O)nc1 [Example 70, 6-{4-[2-(difluoromethoxy)-4-fluorophenyl]-1-oxo-1,3-dihydro-2H-pyrrolo[3,4-c]pyridin-2-yl}pyridine-3-carbonitrile]	53
N#Cc1ccc(N2Cc3c(ccnc3-c3ccc(F)cc3OCC(F)(F)F)C2=O)nc1 [Example 71, 6-{4-[4-fluoro-2-(2,2,2-trifluoroethoxy)phenyl]-1-oxo-1,3-dihydro-2H-pyrrolo[3,4-c]pyridin-2-yl}pyridine-3-carbonitrile]	99
